Experimental data: patent US20240327389A1, “LACTONE AND LACTAM CONTAINING COMPOUNDS USEFUL AS IMMUNOMODULATORS” (BRISTOL-MYERS SQUIBB COMPANY, priority 2021, published 2024)

Molecular target: PD-1/PD-L1 interaction (PD-1-Ig / PD-L1-His) (Homo sapiens (Human), UniProt Q9NZQ7)
Experiment: PD-1/PD-L1 Homogenous Time-Resolved Fluorescence (HTRF) binding assay
Conditions: PD-L1-His 10 nM final, PD-1-Ig 20 nM final
Excerpt: The ability of the compounds of the invention to bind to PD-L1 was investigated using a PD-1/PD-L1 Homogenous Time-Resolved Fluorescence (HTRF) binding assay.
The interaction of PD-1 and PD-L1 can be assessed using soluble, purified preparations of the extracellular domains of the two proteins. The PD-1 and PD-L1 protein extracellular domains were expressed as fusion proteins with detection tags, for PD-1, the tag was the Fc portion of Immunoglobulin (PD-1-Ig) and for PD-L1 it was the 6 histidine motif (PD-L1-His). All binding studies were performed in an HTRF assay buffer consisting of dPBS supplemented with 0.1% […] bovine serum albumin and 0.05% (v/v) Tween-20. For the h/PD-L1-His binding assay, inhibitors were pre-incubated with PD-L1-His (10 nM final) for 15 m in 4 μl of assay buffer, followed by addition of PD-1-Ig (20 nM final) in 1 μl of assay buffer and further incubation for 15 m. HTRF detection was achieved using europium crypate-labeled anti-Ig (1 nM final) and allophycocyanin (APC) labeled anti-His (20 nM final). Antibodies were diluted in HTRF detection buffer and 5 μl was dispensed on top of the binding reaction. The reaction mixture was allowed to equilibrate for 30 minutes and the resulting signal (665 nm/620 nm ratio) was obtained using an EnVision fluorometer. Additional binding assays were established between the human proteins PD-1-Ig/PD-L2-His (20 & 5 nM, respectively) and CD80-His/PD-L1-Ig (100 & 10 nM, respectively).
Recombinant Proteins: Human PD-1 (25-167) with a C-terminal human Fc domain of immunoglobulin G (Ig) epitope tag [hPD-1 (25-167)-3S-IG] and human PD-L1 (18-239) with a C-terminal His epitope tag [hPD-L1(18-239)-TVMV-His] were expressed in HEK293T cells and purified sequentially by ProteinA affinity chromatography and size exclusion chromatography. Human PD-L2-His and CD80-His was obtained through commercial sources.
Homogenous Time-Resolved Fluorescence (HTRF) Assays of Binding of Soluble PD-1 to Soluble PD-L1. Soluble PD-1 and soluble PD-L1 refers to proteins with carboxyl-end truncations that remove the transmembrane-spanning regions and are fused to heterologous sequences, specifically the Fc portion of the human immunoglobuling G sequence (Ig) or the hexahistidine epitope tag (His). All binding studies were performed in an HTRF assay buffer consisting of dPBS supplemented with 0.1% (w/v) bovine serum albumin and 0.05% (v/v) Tween-20. For the PD-1-Ig/PD-L1-His binding assay, inhibitors were pre-incubated with PD-L1-His (10 nM final) for 15 m in 4 μl of assay buffer, followed by addition of PD-1-Ig (20 nM final) in 1 μl of assay buffer and further incubation for 15 m. PD-L1 fusion proteins from either human, cynomologous macaques, mouse, or other species were used. HTRF detection was achieved using europium crypate-labeled anti-Ig monoclonal antibody (1 nM final) and allophycocyanin (APC) labeled anti-His monoclonal antibody (20 nM final). Antibodies were diluted in HTRF detection buffer and 5 μl was dispensed on top of binding reaction. The reaction was allowed to equilibrate for 30 minutes and signal (665 nm/620 nm ratio) was obtained using an EnVision fluorometer. Additional binding assays were established between PD-1-Ig/PD-L2-His (20 and 5 nM, respectively), CD80-His/PD-L1-Ig (100 and 10 nM, respectively) and CD80-His/CTLA4-Ig (10 and 5 nM, respectively).
Recombinant Proteins. Carboxyl-truncated human PD-1 (amino acids 25-167) with a C-terminal human Ig epitope tag [hPD-1 (25-167)-3S-IG] and human PD-L1 (amino acids 18-239) with a C-terminal His epitope tag [hPD-L1(19-239)-tobacco vein mottling virus protease cleavage site (TVMV)-His] were expressed in HEK293T cells and purified sequentially by recombinant Protein A affinity chromatography and size exclusion chromatography. Human PD-L2-His (Sino Biologicals), CD80-His (Sino Biologicals), CTLA4-Ig (RnD Systems) were all obtained through commercial sources.

PD-1/PD-L1 interaction (PD-1-Ig / PD-L1-His), sequence (Q9NZQ7 18-239): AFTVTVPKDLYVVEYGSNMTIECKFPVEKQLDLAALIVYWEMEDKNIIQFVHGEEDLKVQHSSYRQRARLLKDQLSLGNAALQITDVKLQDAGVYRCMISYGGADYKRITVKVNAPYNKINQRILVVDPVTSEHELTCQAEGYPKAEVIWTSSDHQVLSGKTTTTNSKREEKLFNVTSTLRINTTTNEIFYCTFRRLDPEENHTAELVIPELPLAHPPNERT

| IC50 [nM] | Compound |
| --- | --- |
| 121 | Cc1c(COc2cc(OCc3cncc(C#N)c3)c(CNC3CC(=O)OC3(C)C)cc2Cl)cccc1-c1cccc(COc2cc(OCc3cncc(C#N)c3)c(CNC3CC(=O)OC3(C)C)cc2Cl)c1C (centres unmarked) [Compound 1021] |
| 145 | Cc1c(COc2cc(OCc3cncc(C#N)c3)c(CNC3CC(C)(C)OC3=O)cc2Cl)cccc1-c1cccc(COc2cc(OCc3cncc(C#N)c3)c(CNC3CC(C)(C)OC3=O)cc2Cl)c1C (centres unmarked) [Compound 1022] |
| > 10000 | Cc1c(COc2cc(OCc3cncc(C#N)c3)c(CNC3C(=O)OCC3(C)C)cc2Cl)cccc1-c1cccc(COc2cc(OCc3cncc(C#N)c3)c(CNC3C(=O)OCC3(C)C)cc2Cl)c1C (centres unmarked) [Compound 1023] |
| 21.4 | Cc1c(COc2cc(OCc3cncc(C#N)c3)c(CNC3CC(C)OC3=O)cc2Cl)cccc1-c1cccc(COc2cc(OCc3cncc(C#N)c3)c(CNC3CC(C)OC3=O)cc2Cl)c1C (centres unmarked) [Compound 1024] |
| > 10000 | Cc1c(COc2cc(OCc3cncc(C#N)c3)c(CNC3(C)CC(C)(C)OC3=O)cc2Cl)cccc1-c1cccc(COc2cc(OCc3cncc(C#N)c3)c(CNC3(C)CC(C)(C)OC3=O)cc2Cl)c1C (centres unmarked) [Compound 1025] |
| 10.4 | N#Cc1cncc(COc2cc(OCc3cccc(-c4cccc(COc5cc(OCc6cncc(C#N)c6)c(CN[C@H]6CCOC6=O)cc5Cl)c4Cl)c3Cl)c(Cl)cc2CN[C@H]2CCOC2=O)c1 [Compound 1026] |
| 2.5 | Cc1c(COc2cc(OCc3cncc(C#N)c3)c(CNC3CCNC3=O)cc2Cl)cccc1-c1cccc(OCC2CCCN(C)C2)c1Cl (centres unmarked) [Compound 1027] |
| 44.5 | Cc1c(COc2cc(O)c(CN[C@H]3COC(=O)C3)cc2Cl)cccc1-c1cccc(OCC2CCCN(C)C2)c1Cl (some centres unmarked) [Compound 1028] |
| 132 | Cc1c(COc2cc(O)c(CNC3(C)CCOC3=O)cc2Cl)cccc1-c1cccc(OCC2CCCN(C)C2)c1Cl (centres unmarked) [Compound 1029] |
| 80.1 | Cc1c(COc2cc(O)c(CNC3CC(C)OC3=O)cc2Cl)cccc1-c1cccc(OCC2CCCN(C)C2)c1Cl (centres unmarked) [Compound 1030] |
| 39.3 | Cc1c(COc2cc(O)c(CN[C@H]3CCOC3=O)cc2Cl)cccc1-c1cccc(OCC2CCCN(C)C2)c1Cl (some centres unmarked) [Compound 1031] |
| 7.8 | COc1cc(OCc2cccc(-c3cccc(OCC4CCCN(C)C4)c3Cl)c2C)c(Cl)cc1CNC1CCOC1=O (centres unmarked) [Compound 1032] |
| 11.5 | COc1cc(OCc2cccc(-c3cccc(OCC4CCCN(C)C4)c3Cl)c2C)c(Cl)cc1CNC1CC(C)OC1=O (centres unmarked) [Compound 1033] |
| 7.4 | COc1cc(OCc2cccc(-c3cccc(OCC4CCCN(C)C4)c3Cl)c2C)c(Cl)cc1CNC1CC(C)(C)OC1=O (centres unmarked) [Compound 1034] |
| 2.1 | COc1cc(OCc2cccc(-c3cccc(OCC4CCCN(C)C4)c3Cl)c2C)c(Cl)cc1CNC1CCCNC1=O (centres unmarked) [Compound 1035] |
| 7.3 | COc1cc(OCc2cccc(-c3cccc(OCC4CCCN(C)C4)c3Cl)c2C)c(Cl)cc1CNC1(C)CCOC1=O (centres unmarked) [Compound 1036] |
| 136 | COc1cc(OCc2cccc(-c3cccc(OCC4CCCN(C)C4)c3Cl)c2C)c(Cl)cc1CNC1C(=O)OCC1(C)C (centres unmarked) [Compound 1037] |
| 4.8 | COc1cc(OCc2cccc(-c3cccc(OCC4CCCN(C)C4)c3Cl)c2C)c(Cl)cc1CNC1CCNC1=O (centres unmarked) [Compound 1038] |
| 19.6 | COc1cc(OCc2cccc(-c3cccc(OCC4CCCN(C)C4)c3Cl)c2C)c(Cl)cc1CNC1(C)CC(C)(C)OC1=O (centres unmarked) [Compound 1039] |
| 6.7 | COc1cc(OCc2cccc(-c3cccc(OCC4CCCN(C)C4)c3Cl)c2C)c(Cl)cc1CN[C@H]1CCOC1=O (some centres unmarked) [Compound 1040] |
| 9.1 | COc1cc(OCc2cccc(-c3cccc(OCC4CCCN(C)C4)c3Cl)c2C)c(Cl)cc1CN[C@@H]1CCOC1=O (some centres unmarked) [Compound 1041] |

The remaining lines, values behind:

| Compound | IC50 [nM] |
| --- | --- |
| Cc1c(COc2cc(OCc3cncc(C#N)c3)c(CN[C@H]3CCOC3=O)cc2Cl)cccc1-c1cccc(OCC2CCCN(C)C2)c1Cl (some centres unmarked) [Compound 1001] | 2.7 |
| Cc1c(COc2cc(OCc3cncc(C#N)c3)c(CN[C@@H]3CCOC3=O)cc2Cl)cccc1-c1cccc(OCC2CCCN(C)C2)c1Cl (some centres unmarked) [Compound 1002] | 3.5 |
| Cc1c(COc2cc(OCc3cncc(C#N)c3)c(CN[C@H]3COC(=O)C3)cc2Cl)cccc1-c1cccc(OCC2CCCN(C)C2)c1Cl (some centres unmarked) [Compound 1003] | 2 |
| Cc1c(COc2cc(OCc3cncc(C#N)c3)c(CN[C@@H]3COC(=O)C3)cc2Cl)cccc1-c1cccc(OCC2CCCN(C)C2)c1Cl (some centres unmarked) [Compound 1004] | 3.1 |
| Cc1c(COc2cc(OCc3cncc(C#N)c3)c(CNC3(C)CCOC3=O)cc2Cl)cccc1-c1cccc(OCC2CCCN(C)C2)c1Cl (centres unmarked) [Compound 1005] | 1.7 |
| Cc1c(COc2cc(OCc3cncc(C#N)c3)c(CNC3CC(C)OC3=O)cc2Cl)cccc1-c1cccc(OCC2CCCN(C)C2)c1Cl (centres unmarked) [Compound 1006] | 2.6 |
| Cc1c(COc2cc(OCc3cncc(C#N)c3)c(CNC3CC(C)(C)OC3=O)cc2Cl)cccc1-c1cccc(OCC2CCCN(C)C2)c1Cl (centres unmarked) [Compound 1007] | 3.5 |
| Cc1c(COc2cc(OCc3cncc(C#N)c3)c(CNC3C(=O)OCC3(C)C)cc2Cl)cccc1-c1cccc(OCC2CCCN(C)C2)c1Cl (centres unmarked) [Compound 1008] | 4.4 |
| Cc1c(COc2cc(OCc3cncc(C#N)c3)c(CNC3(C)CC(C)(C)OC3=O)cc2Cl)cccc1-c1cccc(OCC2CCCN(C)C2)c1Cl (centres unmarked) [Compound 1009] | 3 |
| Cc1c(COc2cc(OCc3cncc(C#N)c3)c(CN[C@H]3CCNC3=O)cc2Cl)cccc1-c1cccc(OCC2CCCN(C)C2)c1Cl (some centres unmarked) [Compound 1010] | 2.3 |
| Cc1c(COc2cc(OCc3cncc(C#N)c3)c(CNC3CCNC3=O)cc2Cl)cccc1-c1cccc(OCC2CCCN(C)C2)c1Cl (centres unmarked) [Compound 1011] | 1.5 |
| Cc1c(COc2cc(OCc3cncc(C#N)c3)c(CNC3CCN(C)C3=O)cc2Cl)cccc1-c1cccc(OCC2CCCN(C)C2)c1Cl (centres unmarked) [Compound 1012] | 2.9 |
| Cc1c(COc2cc(OCc3cncc(C#N)c3)c(CN[C@H]3CCCNC3=O)cc2Cl)cccc1-c1cccc(OCC2CCCN(C)C2)c1Cl (some centres unmarked) [Compound 1013] | 4 |
| Cc1c(COc2cc(OCc3cncc(C#N)c3)c(CNC3CCCNC3=O)cc2Cl)cccc1-c1cccc(OCC2CCCN(C)C2)c1Cl (centres unmarked) [Compound 1014] | 3.2 |
| Cc1c(COc2cc(OCc3cncc(C#N)c3)c(CNC3CCC(=O)NC3=O)cc2Cl)cccc1-c1cccc(OCC2CCCN(C)C2)c1Cl (centres unmarked) [Compound 1015] | 2.4 |
| Cc1c(COc2cc(OCc3cncc(C#N)c3)c(CNC3(C)CCOC3=O)cc2Cl)cccc1-c1cccc(COc2cc(OCc3cncc(C#N)c3)c(CNC3(C)CCOC3=O)cc2Cl)c1C (centres unmarked) [Compound 1016] | 110 |
| Cc1c(COc2cc(OCc3cncc(C#N)c3)c(CO)cc2Cl)cccc1-c1cccc(COc2cc(OCc3cncc(C#N)c3)c(CNC3(C)CCOC3=O)cc2Cl)c1C (centres unmarked) [Compound 1017] | 112 |
| Cc1c(COc2cc(OCc3cncc(C#N)c3)c(CNC3CCOC3=O)cc2Cl)cccc1-c1cccc(COc2cc(OCc3cncc(C#N)c3)c(CNC3CCOC3=O)cc2Cl)c1C (centres unmarked) [Compound 1018] | 15 |
| Cc1c(COc2cc(OCc3cncc(C#N)c3)c(CN[C@H]3CCOC3=O)cc2Cl)cccc1-c1cccc(COc2cc(OCc3cncc(C#N)c3)c(CN[C@H]3CCOC3=O)cc2Cl)c1C [Compound 1019] | 18.3 |
| Cc1c(COc2cc(OCc3cncc(C#N)c3)c(CN[C@@H]3CCOC3=O)cc2Cl)cccc1-c1cccc(COc2cc(OCc3cncc(C#N)c3)c(CN[C@@H]3CCOC3=O)cc2Cl)c1C [Compound 1020] | 7.3 |
